{"source": "patent US9168288B2", "about": "“Methods for treating disorders of the gastrointestinal tract using a GLP-1 agonist” (Mount Sinai Hospital, priority 2010, dated 2015)", "format_in_all_cases": "in vivo", "key": {"[1]": {"system": "wild-type female C57B1/6 mice on regular drinking water or 3% DSS", "experiment": "Example 5: low dose Liraglutide (25 or 50 μg/kg BID s.c., one week), small intestine size, body weight, blood glucose", "details": "C57B1/6, regular water or 3% DSS", "protocol": "All mice were 10-week old wild-type female mice on the C57B1/6 genetic background. Mice were maintained on a standard rodent chow diet and either regular drinking water or water supplemented with 3% DSS for a total of one week. Mice were given subcutaneous injections of either phosphate buffered saline (PBS), 25 μg/kg of Liraglutide (LG) BID, or 50 μg/kg of LG BID for one week. PBS or LG injections commenced at the same time that mice were started on normal drinking water or water supplemented with 3% DSS. Injections were administered using a 31 g insulin syringe with an 8 mm long needle and in a final volume that ranged between 85-110 μl. Body weights, food intake, and water intake were determined daily. […] Small intestines were removed and then suspended vertically with a 1 g weight attached to the distal portion of the small intestine (to provide uniform tension). Small intestine length was determined using a vertical ruler. Luminal contents were removed from the small bowel by flushing with ice-cold PBS using a 60 cc syringe attached to a p200 pipette tip. Mesenteric fat and pancreatic tissue were dissected away from the small intestine. The small intestine was blotted to remove excess PBS and then weighed. Statistical analyses were done by one-way ANOVA with Bonferroni's Multiple Comparison Post-Test using GraphPad Prism software (version 4).\nAll mice were 10-week old female wild-type mice on the C57B1/6 genetic background. Mice were maintained on a standard rodent chow diet and either regular drinking water or water supplemented with 3% DSS for a total of one week. Mice were given s.c. injections of either phosphate buffered saline (PBS), 25 μg/kg of Liraglutide (LG) BID, or 50 μg/kg of LG BID for one week. PBS or LG injections commenced at the same time that mice were started on normal drinking water or water supplemented with 3% DSS. Injections were administered using a 31 g insulin syringe with an 8 mm long needle and in a final volume that ranged between 85-110 μl. Body weights, food intake, and water intake were determined daily. Blood glucose levels were measured on the first day of the study and just prior to sacrifice. Statistical analyses were done by one-way ANOVA with Bonferroni's Multiple Comparison Post-Test using GraphPad Prism software (version 4). n=5 mice/group."}, "[2]": {"system": "WT female mice on the C57B1/6 genetic background", "experiment": "Example 3: efficacy of GLP-1 receptor agonists administered once per day (body weight, blood glucose, pancreas, small bowel, colon)", "protocol": "All mice used in the study were 10-week old WT female mice on the C57B1/6 genetic background. The mice were maintained on regular drinking water and a standard rodent chow diet.\nAll injections were given once per day, and were administered ip using a 31 g insulin syringe with an 8 mm long needle in a final volume that ranged between 84-125 μl. The body weight and food intake were determined daily. Non-fasting blood glucose levels were measured using a hand-held glucometer on day 1 (prior to the first injection), day 8, and day 15 (day of sacrifice). […] The entire pancreas was removed and weighed. The entire small bowel was removed and then suspended vertically with a 1 g weight attached to the distal portion of the small bowel (to provide uniform tension). Small bowel length was determined using a vertical ruler and then flushed with ice-cold PBS, blotted dry and weighed. The entire colon was removed and colon length was determined by measuring with a ruler placed on a horizontal surface. The colon was then flushed with ice-cold PBS, blotted dry and weighed. All statistical analyses were done by one-way ANOVA with Bonferroni's Multiple Comparison Post-Test using GraphPad Prism software (version 4), n=4 mice/group."}, "[3]": {"system": "female wild-type mice on the Balb/c genetic background", "experiment": "Example 5: low dose Liraglutide (30 or 50 μg/kg BID s.c., one week), large intestine size and body weight, Balb/c mice", "details": "Liraglutide 30 μg/kg BID s.c. 7 days vs PBS", "from_the_text": "FIGS. 18A-18D illustrate that doses of Liraglutide lower than those that have shown glucose lowering or cardioprotective effects in rodents [Rolin B, et al, 2002; Noyan-Ashraf M H, et al, 2009; Porter D W et al, 2010; Irwin N et al, 2010; and Gault V A et al, 2011] are still able to increase large intestine size (large intestine weight and length) in wild-type mice compared to PBS-treated mice. FIGS. 18A-18D also illustrate that Liraglutide treatment can increase large intestine size (large intestine length and weight) in wild-type mice on the Balb/c genetic background compared to control-treated mice. All mice were 9-week old female wild-type mice on the Balb/c genetic background. All mice were maintained on a standard rodent chow diet and normal drinking water. Mice were given s.c. injections of either phosphate buffered saline (PBS), 30 μg/kg of Liraglutide (LG) BID, or 50 μg/kg of LG BID for one week. Injections were administered using a 31 g insulin syringe with an 8 mm long needle and in a final volume that ranged between 60-120 μl. Body weights and food intake were determined daily. […] The large intestine was removed and its length was determined by measuring with a ruler placed on a horizontal surface. Luminal contents were removed from the large intestine by flushing with ice-cold PBS using a 60 cc syringe attached to a p200 pipette tip. Mesenteric fat was dissected away from the large intestine. The large intestine was blotted to remove excess PBS and then weighed. Statistical analyses were done by one-way ANOVA with Bonferroni's Multiple Comparison Post-Test using GraphPad Prism software (version 4).\nAll mice were 9-week old female wild-type mice on the Balb/c genetic background. All mice were maintained on a standard rodent chow diet and normal drinking water. Mice were given s.c. injections of either phosphate buffered saline (PBS), 30 μg/kg of Liraglutide (LG) BID, or 50 μg/kg of LG BID for one week. […] Body weights and food intake were determined daily. […]"}, "[4]": {"details": "Liraglutide 25 μg/kg BID s.c. 7 days vs PBS, listed as 3% DSS/Liguratide"}, "[5]": {"details": "Liraglutide 25 μg/kg BID s.c. 7 days vs PBS, listed as liraglutide"}, "[6]": {"details": "Liraglutide 50 μg/kg BID s.c. 7 days vs PBS"}, "[7]": {"details": "Liraglutide 50 μg/kg BID s.c. 7 days vs PBS, listed as 3% DSS/Liguratide"}, "[8]": {"details": "Liraglutide 50 μg/kg BID s.c. 7 days vs PBS, listed as liraglutide"}, "[9]": {"details": "Liraglutide once a day ip for two weeks (LG qd 2, 75 μg/kg) vs PBS"}}}
{"smiles": "CCCCCCCCCCCCCCCC(=O)N[C@@H](CCC(=O)NCCCC[C@H](NC(=O)[C@H](C)NC(=O)[C@H](C)NC(=O)[C@H](CCC(N)=O)NC(=O)CNC(=O)[C@H](CCC(=O)O)NC(=O)[C@H](CC(C)C)NC(=O)[C@H](Cc1ccc(O)cc1)NC(=O)[C@H](CO)NC(=O)[C@H](CO)NC(=O)[C@@H](NC(=O)[C@H](CC(=O)O)NC(=O)[C@H](CO)NC(=O)[C@@H](NC(=O)[C@H](Cc1ccccc1)NC(=O)[C@@H](NC(=O)CNC(=O)[C@H](CCC(=O)O)NC(=O)[C@H](C)NC(=O)[C@@H](N)Cc1cnc[nH]1)[C@@H](C)O)[C@@H](C)O)C(C)C)C(=O)N[C@@H](CCC(=O)O)C(=O)N[C@@H](Cc1ccccc1)C(=O)N[C@H](C(=O)N[C@@H](C)C(=O)N[C@@H](Cc1c[nH]c2ccccc12)C(=O)N[C@@H](CC(C)C)C(=O)N[C@H](C(=O)N[C@@H](CCCNC(=N)N)C(=O)NCC(=O)N[C@@H](CCCNC(=N)N)C(=O)NCC(=O)O)C(C)C)[C@@H](C)CC)C(=O)O", "note": "[Liraglutide]", "values": [{"measurement": "increase blood glucose (blood glucose level)", "setting": "[1]; Liraglutide 25 μg/kg BID s.c. 7 days vs PBS", "result": "no difference"}, {"measurement": "decrease body weight (final body weight)", "setting": "[1]; [4]", "result": "No"}, {"measurement": "increase blood glucose (blood glucose level)", "setting": "[1]; [4]", "result": "No"}, {"measurement": "decrease body weight (final body weight)", "setting": "[1]; [5]", "result": "no difference"}, {"measurement": "increase blood glucose (blood glucose level)", "setting": "[1]; [5]", "result": "no difference"}, {"measurement": "decrease body weight (final body weight)", "setting": "[1]; [6]", "result": "no difference"}, {"measurement": "increase blood glucose (blood glucose level)", "setting": "[1]; [6]", "result": "no difference"}, {"measurement": "decrease body weight (final body weight)", "setting": "[1]; [7]", "result": "No"}, {"measurement": "increase blood glucose (blood glucose level)", "setting": "[1]; [7]", "result": "No"}, {"measurement": "decrease body weight (final body weight)", "setting": "[1]; [8]", "result": "no difference"}, {"measurement": "increase blood glucose (blood glucose level)", "setting": "[1]; [8]", "result": "no difference"}, {"measurement": "non-fasting blood glucose levels", "setting": "[2]; Liraglutide 75 μg/kg ip once a day for one week vs PBS", "result": "does not alter"}, {"measurement": "non-fasting blood glucose levels", "setting": "[2]; Liraglutide 75 μg/kg ip once a day for two weeks vs PBS", "result": "significantly increased"}, {"measurement": "body weight", "setting": "[2]; Liraglutide 75 μg/kg ip once per day for 7 days (LG qd 1) vs PBS", "result": "do not have a significant effect"}, {"measurement": "body weight", "setting": "[2]; Liraglutide 75 μg/kg ip once per day for 14 days (LG qd 2) vs PBS", "result": "do not have a significant effect"}, {"measurement": "pancreas weight per gram of body weight", "setting": "[2]; [9]", "result": "significantly increases"}, {"measurement": "total pancreas weight", "setting": "[2]; [9]", "result": "significantly increases"}, {"measurement": "decrease body weight (final body weight)", "setting": "[3]", "result": "no difference"}, {"measurement": "decrease body weight (final body weight)", "setting": "[3]; listed as 3% DSS/Liguratide", "result": "No"}, {"measurement": "decrease body weight (final body weight)", "setting": "[3]; listed as liraglutide", "result": "no difference"}]}
